According to patent US20260167622A1, “PAN-KRAS DEGRADING AGENT, AND PREPARATION METHOD THEREFOR AND USE THEREOF” (LEADINGTAC PHARMACEUTICAL (SHAOXING) CO., LTD., priority 2022, published 2026):

Assays:
Assay type in all cases: cell-based
[1] = tested on: KRAS G12C mutant human non-small cell lung cancer cell NCI-H358; test: 3D cell proliferation inhibition assay, NCI-H358; details: NCI-H358, 168 h, 3D culture, 7 days, CTG
Outline: (§1)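 Cells seeded in low-adsorption plates at 5×10^2 cells/well (MKN1 1×10^3) with compounds at final 10000–0.026 nM, 0.2% DMSO, 3D culture 7 days at 37 °C. Viability by CellTiter-Glo luminescence; inhibition normalised to DMSO and medium-only controls, IC50 from nonlinear log-concentration fit.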

[2] = tested on: KRAS G12D mutant human lung cancer cell A427; test: 3D cell proliferation inhibition assay, A427; details: A-427, 168 h, 3D culture, 7 days, CTG
Excerpt: (§2) Test Example 6: 3D Cell Proliferation Inhibition Assay
(§3) The inhibitory effects of the compounds on 3D cell proliferation were investigated on KRAS G12C mutant human non-small cell lung cancer cell NCI-H358, KRAS G12D mutant human lung cancer cell A427, KRAS G12D mutant human gastric cancer cell AGS, KRAS G12D mutant human metastatic pancreatic cancer cell AsPc-1, KRAS G12V mutant human lung squamous carcinoma cell SW900, KRAS G12V mutant human colorectal cancer cell SW620, KRAS G13D mutant human colorectal cancer epithelial cell DLD-1, and KRAS WT human gastric cancer cell MKN1. The specific procedures were as follows:
(§4) 10 μL of each compound solution diluted in a gradient was added to corresponding wells of a 96-well low-adsorption microplate (PerkinElmer), so that the final concentrations of the test compounds in the reaction system were in a range of 10000-0.026 nM. The final concentration of DMSO was 0.2%. Then 90 µL of cells were correspondingly seeded into each well to achieve a cell density of 5×10^2 cells/well (the cell density of SW900 was 5×10^3 cells/well, and the cell density of MKN1 was 1×10^3 cells/well). In addition to test wells for the test compounds, both a DMSO control well and a medium control well were set, with the DMSO control well containing DMSO and cells and the medium well containing only a medium. After the sample loading, the 96-well low-adsorption microplate was incubated in an incubator at 37° C. with […] for 7 days. After 7 days, the microplate was taken out, and 100 μL of CTG reagent (Promega) was added to each well. The plate was incubated at room temperature for 60 m and read on a microplate reader EnVision by the chemiluminescence program. The inhibition rates of the compounds at each concentration were calculated using the formula for the percentage inhibition of cell proliferation: inhibition rate 00=(mean value of DMSO control group−single concentration reading value of compound)/(mean value of DMSO control group−mean value of medium control group)×100. Then non-linear curve fillings for logarithmic concentration-inhibition rate were performed by GraphPad Prism 8, and the IC50 values of the compounds were obtained (Table 6).

[3] = tested on: KRAS G12V mutant human lung squamous carcinoma cell SW900; test: 3D cell proliferation inhibition assay, SW900; details: SW900, 168 h, 3D culture, 7 days, CTG
Excerpt: as §2, §3, §4

[4] = tested on: KRAS WT human gastric cancer cell MKN1; test: 3D cell proliferation inhibition assay, MKN1; details: MKN-1, 168 h, 3D culture, 7 days, CTG
Excerpt: as §2, §3, §4

[5] = tested on: KRAS G12D mutant human gastric cancer cell AGS; test: 3D cell proliferation inhibition assay, AGS; details: 168 h, 3D culture, 7 days, CTG
Excerpt: as §2, §3, §4

[6] = biological target: T1, KRAS G12V protein in SW900 cells (Homo sapiens, UniProt P01116, G12V); test: KRAS degradation assay (Western Blot) in SW900 cells; details: 24 h
T1 construct: endogenous in cells; host or cells: SW900
Outline: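 5×10^5 cells/well; cpd 0.03–3000 nM final, 0.25% DMSO, 24 h, 37 °C/5% CO2. RIPA lysis, 5 µg protein/lane, anti-KRAS WB, β-actin loading ref. DC50/Dmax by nonlinear fit.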

[7] = tested on: KRAS G12D mutant human metastatic pancreatic cancer cell AsPc-1; test: 3D cell proliferation inhibition assay, AsPc-1; details: ASPC1, 168 h, 3D culture, 7 days, CTG
Outline: as §1

[8] = tested on: KRAS G13D mutant human colorectal cancer epithelial cell DLD-1; test: 3D cell proliferation inhibition assay, DLD-1; details: DLD-1, 168 h, 3D culture, 7 days, CTG
Outline: as §1

[9] = tested on: KRAS G12V mutant human colorectal cancer cell SW620; test: 3D cell proliferation inhibition assay, SW620; details: SW-620, 168 h, 3D culture, 7 days, CTG
Outline: as §1

T1 sequence (P01116 1-188 isoform P01116-2 G12V): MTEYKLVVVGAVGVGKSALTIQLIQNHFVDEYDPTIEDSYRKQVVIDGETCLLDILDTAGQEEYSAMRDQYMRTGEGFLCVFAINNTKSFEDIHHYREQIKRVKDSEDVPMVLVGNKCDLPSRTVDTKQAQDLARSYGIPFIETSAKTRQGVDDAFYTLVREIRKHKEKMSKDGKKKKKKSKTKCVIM

| SMILES | IC50 [1] | IC50 [2] | IC50 [3] | IC50 [4] | IC50 [5] | DC50 [6] | Dmax [6] | IC50 [7] | IC50 [8] | IC50 [9] |
| --- | --- | --- | --- | --- | --- | --- | --- | --- | --- | --- |
| C#Cc1c(F)ccc2cc(O)cc(-c3ncc4c(N5CCC[C@@](C)(O)C5)nc(OCC5(CN6CCN(CC7CCC8(CC7)CCN(C(=O)c7ccc9c(c7)C(=O)N(C7CCC(=O)NC7=O)C9=O)CC8)CC6)CC5)nc4c3F)c12 (stereo partly drawn) [Example 13, 2-(2,6-dioxopiperidin-3-yl)-5-(9-((4-((1-(((7-(8-ethynyl-7-fluoro-3-hydroxynaphthalen-1-yl)-8-fluoro-4-((R)-3-hydroxy-3-methylpiperidin-1-yl)pyrido[4,3-d]pyrimidin-2-yl)oxy)methyl)cyclopropyl)methyl)piperazin-1-yl)methyl)-3-azaspiro[5.5]undecane-3-carbonyl)isoindoline-1,3-dione] | 500 to 1000 nM | 500 to 1000 nM | ≤ 50 nM | 50 to 100 nM | 500 to 1000 nM |  |  |  |  |  |
| C#Cc1c(F)ccc2cc(O)cc(-c3ccc4c(N5CCC[C@@](C)(O)C5)nc(OCC5(CN6CCN(CC7CCC8(CC7)CCN(C(=O)c7ccc(OC)c(N9CCC(=O)NC9=O)c7)CC8)CC6)CC5)nc4c3F)c12 [Example 21, (R)-1-(5-(9-((4-((1-(((7-(8-ethynyl-7-fluoro-3-hydroxynaphthalen-1-yl)-8-fluoro-4-(3-hydroxy-3-methylpiperidin-1-yl)quinazolin-2-yl)oxy)methyl)cyclopropyl)methyl)piperazin-1-yl)methyl)-3-azaspiro[5.5]undecane-3-carbonyl)-2-methoxyphenyl)dihydropyrimidine-2,4(1H,3H)-dione] | 100 to 500 nM | 50 to 100 nM | ≤ 50 nM | ≤ 50 nM | ≤ 50 nM | ≤ 50 nM | 80 to 100% | ≤ 50 nM |  | 5.54 nM |
| C#Cc1cccc2cc(O)cc(-c3ccc4c(N5CCC[C@@](C)(O)C5)nc(OCC5(CN6CCN(CC7CCC8(CC7)CCN(C(=O)c7ccc(OC)c(N9CCC(=O)NC9=O)c7)CC8)CC6)CC5)nc4c3F)c12 [Example 24, (R)-1-(5-(9-((4-((1-(((7-(8-ethynyl-3-hydroxynaphthalen-1-yl)-8-fluoro-4-(3-hydroxy-3-methylpiperidin-1-yl)quinazolin-2-yl)oxy)methyl)cyclopropyl)methyl)piperazin-1-yl)methyl)-3-azaspiro[5.5]undecane-3-carbonyl)-2-methoxyphenyl)dihydropyrimidine-2,4(1H,3H)-dione] | 100 to 500 nM | 100 to 500 nM | ≤ 50 nM | ≤ 50 nM | 50 to 100 nM | ≤ 50 nM | 80 to 100% | ≤ 50 nM |  | 9.33 nM |
| C#Cc1c(F)ccc2cc(O)cc(-c3ccc4c(N5CCC[C@@](C)(O)C5)nc(OCC5(CN6CCC(CCOCC7CCN(C(=O)c8ccc(C)c(N9CCC(=O)NC9=O)c8)CC7)CC6)CC5)nc4c3F)c12 [Example 34, (R)-1-(5-(4-((2-(1-((1-(((7-(8-ethynyl-7-fluoro-3-hydroxynaphthalen-1-yl)-8-fluoro-4-(3-hydroxy-3-methylpiperidin-1-yl)quinazolin-2-yl)oxy)methyl)cyclopropyl)methyl)piperidin-4-yl)ethoxy)methyl)piperidine-1-carbonyl)-2-methylphenyl)dihydropyrimidine-2,4(1H,3H)-dione] | 50 to 100 nM | 100 to 500 nM | ≤ 50 nM | ≤ 50 nM | ≤ 50 nM | ≤ 50 nM | 80 to 100% | ≤ 50 nM |  |  |

The remaining lines, values ahead:

| IC50 [1] | IC50 [2] | IC50 [3] | IC50 [4] | IC50 [5] | DC50 [6] | Dmax [6] | IC50 [7] | IC50 [8] | IC50 [9] | SMILES |
| --- | --- | --- | --- | --- | --- | --- | --- | --- | --- | --- |
| ≤ 50 nM | 100 to 500 nM | ≤ 50 nM | ≤ 50 nM | ≤ 50 nM | ≤ 50 nM | 80 to 100% | 50 to 100 nM |  |  | C#Cc1c(F)ccc2cc(O)cc(-c3ncc4c(N5CCC[C@@](C)(O)C5)nc(OCC5(CN6CCN(CCCC7CCN(C(=O)c8ccc(Cl)c(N9CCC(=O)NC9=O)c8)CC7)CC6)CC5)nc4c3F)c12 [Example 4, (R)-1-(2-chloro-5-(4-(3-(4-((1-(((7-(8-ethynyl-7-fluoro-3-hydroxynaphthalen-1-yl)-8-fluoro-4-(3-hydroxy-3-methylpiperidin-1-yl)pyrido[4,3-d]pyrimidin-2-yl)oxy)methyl)cyclopropyl)methyl)piperazin-1-yl)propyl)piperidine-1-carbonyl)phenyl)dihydropyrimidine-2,4(1H,3H)-dione] |
| ≤ 50 nM | ≤ 50 nM | 50 to 100 nM | ≤ 50 nM | ≤ 50 nM | ≤ 50 nM | 80 to 100% | ≤ 50 nM | ≤ 50 nM |  | CCc1c(F)ccc2cc(O)cc(-c3ncc4c(N5CCC[C@@](C)(O)C5)nc(OCC5(CN6CCC(CCOCC7CCN(C(=O)c8ccc(Cl)c(N9CCC(=O)NC9=O)c8)CC7)CC6)CC5)nc4c3F)c12 [Example 5, (R)-1-(2-chloro-5-(4-((2-(1-((1-(((7-(8-ethyl-7-fluoro-3-hydroxynaphthalen-1-yl)-8-fluoro-4-(3-hydroxy-3-methylpiperidin-1-yl)pyrido[4,3-d]pyrimidin-2-yl)oxy)methyl)cyclopropyl)methyl)piperidin-4-yl)ethoxy)methyl)piperidine-1-carbonyl)phenyl)dihydropyrimidine-2,4(1H,3H)-dione] |
| ≤ 50 nM | 100 to 500 nM | ≤ 50 nM | ≤ 50 nM | ≤ 50 nM | ≤ 50 nM | 80 to 100% | 100 to 500 nM |  | 15.3 nM | CCc1cccc2cc(O)cc(-c3ccc4c(N5CCC[C@@](C)(O)C5)nc(OCC5(CN6CCN(CC7CCC8(CC7)CCN(C(=O)c7ccc(Cl)c(N9CCC(=O)NC9=O)c7)CC8)CC6)CC5)nc4c3F)c12 [Example 12, (R)-1-(2-chloro-5-(9-((4-((1-(((7-(8-ethyl-3-hydroxynaphthalen-1-yl)-8-fluoro-4-(3-hydroxy-3-methylpiperidin-1-yl)quinazolin-2-yl)oxy)methyl)cyclopropyl)methyl)piperazin-1-yl)methyl)-3-azaspiro[5.5]undecane-3-carbonyl)phenyl)dihydropyrimidine-2,4(1H,3H)-dione] |
| ≤ 50 nM | 500 to 1000 nM | 100 to 500 nM | ≤ 50 nM | ≤ 50 nM | ≤ 50 nM | 80 to 100% | ≤ 50 nM |  |  | C#Cc1c(F)ccc2cc(O)cc(-c3ncc4c(N5CCC[C@@](C)(O)C5)nc(OCC5(CN6CCN(CC7CCC8(CC7)CCN(C(=O)c7ccc9c(c7)C(=O)N(C7CCC(=O)NC7=O)C9)CC8)CC6)CC5)nc4c3F)c12 (stereo partly drawn) [Example 35, 3-(6-(9-((4-((1-(((7-(8-ethynyl-7-fluoro-3-hydroxynaphthalen-1-yl)-8-fluoro-4-((R)-3-hydroxy-3-methylpiperidin-1-yl)pyrido[4,3-d]pyrimidin-2-yl)oxy)methyl)cyclopropyl)methyl)piperazin-1-yl)methyl)-3-azaspiro[5.5]undecane-3-carbonyl)-1-oxoisoindolin-2-yl)piperidine-2,6-dione] |
